Test results from PubChem BioAssay AID1963853 (Molecular Pharmacology Branch, DTP, NCI, 2024).

System: 266295-075-R-J1-PDC spheroid viability
Assay: Anticancer human tumor 266295-075-R-J1-PDC patient-derived head and neck squamous carcinoma cell line growth inhibition [POLQ]
Conditions: spheroids with HUVEC and MSC; for IC50: curve of first compound; for viability, T/C: stronger effect = lower value
Outline: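 PDC + HUVEC + MSC complex spheroids; POLQ inhibitors ± partner drugs; top conc. at/near clinical Cmax, else 10 microM (SN-38 1 microM), half-log dilutions; 37 degrees C, 5% CO2.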

[1] = second compound 0.0316 µM, first compound 0.00316 µM
[2] = second compound 0.0316 µM, first compound 0.01 µM
[3] = second compound 0.0316 µM, first compound 0.0316 µM
[4] = second compound 0.0316 µM, first compound 0.1 µM
[5] = second compound 0.0316 µM, first compound 0.316 µM
[6] = second compound 0.0316 µM, first compound 1 µM
[7] = second compound 0.1 µM, first compound 0.00316 µM
[8] = second compound 0.1 µM, first compound 0.01 µM
[9] = second compound 0.1 µM, first compound 0.0316 µM
[10] = second compound 0.1 µM, first compound 0.1 µM
[11] = second compound 0.1 µM, first compound 0.316 µM
[12] = second compound 0.1 µM, first compound 1 µM
[13] = second compound 0.316 µM, first compound 0.00316 µM
[14] = second compound 0.316 µM, first compound 0.01 µM
[15] = second compound 0.316 µM, first compound 0.0316 µM
[16] = second compound 0.316 µM, first compound 0.1 µM
[17] = second compound 0.316 µM, first compound 0.316 µM
[18] = second compound 0.316 µM, first compound 1 µM
[19] = second compound 1 µM, first compound 0.00316 µM
[20] = second compound 1 µM, first compound 0.01 µM
[21] = second compound 1 µM, first compound 0.0316 µM
[22] = second compound 1 µM, first compound 0.1 µM
[23] = second compound 1 µM, first compound 0.316 µM
[24] = second compound 1 µM, first compound 1 µM
[25] = second compound 3.16 µM, first compound 0.00316 µM
[26] = second compound 3.16 µM, first compound 0.01 µM
[27] = second compound 3.16 µM, first compound 0.0316 µM
[28] = second compound 3.16 µM, first compound 0.1 µM
[29] = second compound 3.16 µM, first compound 0.316 µM
[30] = second compound 3.16 µM, first compound 1 µM
[31] = second compound 10 µM, first compound 0.00316 µM
[32] = second compound 10 µM, first compound 0.01 µM
[33] = second compound 10 µM, first compound 0.0316 µM
[34] = second compound 10 µM, first compound 0.1 µM
[35] = second compound 10 µM, first compound 0.316 µM
[36] = second compound 10 µM, first compound 1 µM
[37] = second compound 0.0316 µM, first compound 3.16 µM
[38] = second compound 0.0316 µM, first compound 10 µM
[39] = second compound 0.1 µM, first compound 3.16 µM
[40] = second compound 0.1 µM, first compound 10 µM
[41] = second compound 0.316 µM, first compound 3.16 µM
[42] = second compound 0.316 µM, first compound 10 µM
[43] = second compound 1 µM, first compound 3.16 µM
[44] = second compound 1 µM, first compound 10 µM
[45] = second compound 3.16 µM, first compound 3.16 µM
[46] = second compound 3.16 µM, first compound 10 µM
[47] = second compound 10 µM, first compound 3.16 µM
[48] = second compound 10 µM, first compound 10 µM
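Note: spheroids exposed to compounds for seven days before readout.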

Compound: C=CCn1c(=O)c2cnc(Nc3ccc(N4CCN(C)CC4)cc3)nc2n1-c1cccc(C(C)(C)O)n1 + Cc1cccc(N(C)C(=O)C2C(O)CCN2c2nc(C)cc(C(F)(F)F)c2C#N)c1
- IC50 (second compound 0.0316 µM): > 1 µM
- IC50 (second compound 0.1 µM): > 1 µM
- IC50 (second compound 0.316 µM): > 1 µM
- IC50 (second compound 1 µM): > 1 µM
- IC50 (second compound 3.16 µM): > 1 µM
- IC50 (second compound 10 µM): > 1 µM
- viability, T/C [1]: 97.4%
- viability, T/C [2]: 97.7%
- viability, T/C [3]: 112%
- viability, T/C [4]: 101%
- viability, T/C [5]: 80%
- viability, T/C [6]: 62.5%
- viability, T/C [7]: 101%
- viability, T/C [8]: 115%
- viability, T/C [9]: 111%
- viability, T/C [10]: 127%
- viability, T/C [11]: 79.4%
- viability, T/C [12]: 63%
- viability, T/C [13]: 119%
- viability, T/C [14]: 116%
- viability, T/C [15]: 99.7%
- viability, T/C [16]: 131%
- viability, T/C [17]: 81.7%
- viability, T/C [18]: 64.7%
- viability, T/C [19]: 114%
- viability, T/C [20]: 104%
- viability, T/C [21]: 119%
- viability, T/C [22]: 78.4%
- viability, T/C [23]: 77.4%
- viability, T/C [24]: 63.6%
- viability, T/C [25]: 118%
- viability, T/C [26]: 93.6%
- viability, T/C [27]: 91.6%
- viability, T/C [28]: 116%
- viability, T/C [29]: 68.8%
- viability, T/C [30]: 71.5%
- viability, T/C [31]: 137%
- viability, T/C [32]: 117%
- viability, T/C [33]: 102%
- viability, T/C [34]: 128%
- viability, T/C [35]: 87.7%
- viability, T/C [36]: 81.8%

Compound: CCc1c2c(nc3ccc(O)cc13)-c1cc3c(c(=O)n1C2)COC(=O)[C@]3(O)CC + Cc1cccc(N(C)C(=O)C2C(O)CCN2c2nc(C)cc(C(F)(F)F)c2C#N)c1
- IC50 (second compound 0.0316 µM): > 1 µM
- IC50 (second compound 0.1 µM): > 1 µM
- IC50 (second compound 0.316 µM): > 1 µM
- IC50 (second compound 1 µM): > 1 µM
- IC50 (second compound 3.16 µM): > 1 µM
- IC50 (second compound 10 µM): > 1 µM
- viability, T/C [1]: 90.2%
- viability, T/C [2]: 81.4%
- viability, T/C [3]: 80.4%
- viability, T/C [4]: 85.8%
- viability, T/C [5]: 113%
- viability, T/C [6]: 76.7%
- viability, T/C [7]: 90.3%
- viability, T/C [8]: 78.5%
- viability, T/C [9]: 90.4%
- viability, T/C [10]: 81.9%
- viability, T/C [11]: 110%
- viability, T/C [12]: 72.9%
- viability, T/C [13]: 85.8%
- viability, T/C [14]: 84.1%
- viability, T/C [15]: 87.2%
- viability, T/C [16]: 87%
- viability, T/C [17]: 92.5%
- viability, T/C [18]: 75.1%
- viability, T/C [19]: 91.5%
- viability, T/C [20]: 86.7%
- viability, T/C [21]: 77%
- viability, T/C [22]: 84.3%
- viability, T/C [23]: 92.7%
- viability, T/C [24]: 75.5%
- viability, T/C [25]: 78.5%
- viability, T/C [26]: 74.1%
- viability, T/C [27]: 79.9%
- viability, T/C [28]: 89%
- viability, T/C [29]: 107%
- viability, T/C [30]: 75.2%
- viability, T/C [31]: 92.8%
- viability, T/C [32]: 92%
- viability, T/C [33]: 82.9%
- viability, T/C [34]: 85.7%
- viability, T/C [35]: 87.8%
- viability, T/C [36]: 55.6%

Compound: CNCc1ccc(-c2[nH]c3cc(F)cc4c3c2CCNC4=O)cc1 + Cc1cccc(N(C)C(=O)C2C(O)CCN2c2nc(C)cc(C(F)(F)F)c2C#N)c1
- IC50 (second compound 0.0316 µM): > 10 µM
- IC50 (second compound 0.1 µM): > 10 µM
- IC50 (second compound 0.316 µM): > 10 µM
- IC50 (second compound 1 µM): > 10 µM
- IC50 (second compound 3.16 µM): > 10 µM
- IC50 (second compound 10 µM): > 10 µM
- viability, T/C [3]: 87.1%
- viability, T/C [4]: 117%
- viability, T/C [5]: 87.5%
- viability, T/C [6]: 105%
- viability, T/C [37]: 107%
- viability, T/C [38]: 102%
- viability, T/C [9]: 95.4%
- viability, T/C [10]: 99.8%
- viability, T/C [11]: 88.2%
- viability, T/C [12]: 84.2%
- viability, T/C [39]: 126%
- viability, T/C [40]: 128%
- viability, T/C [15]: 104%
- viability, T/C [16]: 111%
- viability, T/C [17]: 104%
- viability, T/C [18]: 99.1%
- viability, T/C [41]: 98.3%
- viability, T/C [42]: 112%
- viability, T/C [21]: 102%
- viability, T/C [22]: 102%
- viability, T/C [23]: 99.9%
- viability, T/C [24]: 93.6%
- viability, T/C [43]: 110%
- viability, T/C [44]: 123%
- viability, T/C [27]: 105%
- viability, T/C [28]: 88.7%
- viability, T/C [29]: 101%
- viability, T/C [30]: 102%
- viability, T/C [45]: 112%
- viability, T/C [46]: 115%
- viability, T/C [33]: 90.1%
- viability, T/C [34]: 115%
- viability, T/C [35]: 113%
- viability, T/C [36]: 126%
- viability, T/C [47]: 107%
- viability, T/C [48]: 106%

Compound: O=C(c1cc(Cc2n[nH]c(=O)c3ccccc23)ccc1F)N1CCN(C(=O)C2CC2)CC1 + Cc1cccc(N(C)C(=O)C2C(O)CCN2c2nc(C)cc(C(F)(F)F)c2C#N)c1
- IC50 (second compound 0.0316 µM): > 10 µM
- IC50 (second compound 0.1 µM): > 10 µM
- IC50 (second compound 0.316 µM): > 10 µM
- IC50 (second compound 1 µM): > 10 µM
- IC50 (second compound 3.16 µM): > 10 µM
- IC50 (second compound 10 µM): > 10 µM
- viability, T/C [3]: 91%
- viability, T/C [4]: 104%
- viability, T/C [5]: 80.3%
- viability, T/C [6]: 85.6%
- viability, T/C [37]: 93.2%
- viability, T/C [38]: 104%
- viability, T/C [9]: 95.5%
- viability, T/C [10]: 103%
- viability, T/C [11]: 91.4%
- viability, T/C [12]: 89.6%
- viability, T/C [39]: 99.3%
- viability, T/C [40]: 78%
- viability, T/C [15]: 86.6%
- viability, T/C [16]: 86.5%
- viability, T/C [17]: 91.7%
- viability, T/C [18]: 91.4%
- viability, T/C [41]: 107%
- viability, T/C [42]: 75.3%
- viability, T/C [21]: 121%
- viability, T/C [22]: 110%
- viability, T/C [23]: 89.5%
- viability, T/C [24]: 92.1%
- viability, T/C [43]: 82.5%
- viability, T/C [44]: 85.9%
- viability, T/C [27]: 92.8%
- viability, T/C [28]: 97.1%
- viability, T/C [29]: 93.5%
- viability, T/C [30]: 110%
- viability, T/C [45]: 121%
- viability, T/C [46]: 89%
- viability, T/C [33]: 101%
- viability, T/C [34]: 99%
- viability, T/C [35]: 95.1%
- viability, T/C [36]: 107%
- viability, T/C [47]: 115%
- viability, T/C [48]: 94.6%
